ChEMBL document CHEMBL1201862, “PubChem BioAssay data set” (2004)
The source made the active and inactive calls.

Tests used:
Cytochrome P450 2C19 = Cytochrome P450 2C19 (Homo sapiens, UniProt P33261); assay: Cytochrome panel assay with activity outcomes. Panel member name: p450-cyp2c19 Compounds with AC50 equal or less than 10 uM are considered active; format: functional
Cytochrome P450 1A2 = biological target: T1, Cytochrome P450 1A2 (Homo sapiens, UniProt P05177);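 also: PubChem cytochrome P450 panel assay, CYP1A2 panel member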
T1 sequence (P05177 whole entry): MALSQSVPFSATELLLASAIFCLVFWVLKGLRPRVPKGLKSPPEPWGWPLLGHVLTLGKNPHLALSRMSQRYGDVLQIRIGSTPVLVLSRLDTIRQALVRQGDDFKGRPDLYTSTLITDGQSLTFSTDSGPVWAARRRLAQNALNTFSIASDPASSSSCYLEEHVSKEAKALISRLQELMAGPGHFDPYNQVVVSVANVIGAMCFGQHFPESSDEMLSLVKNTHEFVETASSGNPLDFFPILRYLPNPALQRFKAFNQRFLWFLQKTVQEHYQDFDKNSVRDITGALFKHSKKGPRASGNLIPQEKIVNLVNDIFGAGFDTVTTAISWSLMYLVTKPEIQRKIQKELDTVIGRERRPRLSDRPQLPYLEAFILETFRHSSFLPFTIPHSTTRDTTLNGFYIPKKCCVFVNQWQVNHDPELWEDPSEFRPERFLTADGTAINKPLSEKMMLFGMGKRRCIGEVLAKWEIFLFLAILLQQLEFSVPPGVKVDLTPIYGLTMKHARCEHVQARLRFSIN

[1] = NIH-3T3 fibroblast cytotoxicity, dose response, cytotoxicity control, cell-based, fluorescence, Alamar Blue, secondary assay (AID 2327); format: functional;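 also: NIH-3T3 mouse fibroblasts cultured with fluconazole at 8 µg/mL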
[2] = fluconazole-exposed Candida albicans growth modulators – fluorescence, retest, confirmation (AID 2467); format: functional, cell-based
[3] = tested on: Streptococcus sp. 'group A'; assay: Streptococcus pyogenes SK(-)GAS viability under kanamycin – luminescence, BacTiterGlo, confirmation, counter-screen for streptokinase expression inhibitor project, dose response (AID 1900); format: functional, organism-based
Streptokinase A = biological target: T2, Streptokinase A (Streptococcus pyogenes serotype M1, UniProt P10520); assay: viability-normalized secreted streptokinase activity reduction – plasminogen activation absorbance, OD405, dose response (AID 1914); format: functional, Streptococcus pyogenes M1 GAS;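 also: secreted streptokinase activity via plasminogen activation per viability signal from cell pellet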
T2 sequence (P10520 whole entry): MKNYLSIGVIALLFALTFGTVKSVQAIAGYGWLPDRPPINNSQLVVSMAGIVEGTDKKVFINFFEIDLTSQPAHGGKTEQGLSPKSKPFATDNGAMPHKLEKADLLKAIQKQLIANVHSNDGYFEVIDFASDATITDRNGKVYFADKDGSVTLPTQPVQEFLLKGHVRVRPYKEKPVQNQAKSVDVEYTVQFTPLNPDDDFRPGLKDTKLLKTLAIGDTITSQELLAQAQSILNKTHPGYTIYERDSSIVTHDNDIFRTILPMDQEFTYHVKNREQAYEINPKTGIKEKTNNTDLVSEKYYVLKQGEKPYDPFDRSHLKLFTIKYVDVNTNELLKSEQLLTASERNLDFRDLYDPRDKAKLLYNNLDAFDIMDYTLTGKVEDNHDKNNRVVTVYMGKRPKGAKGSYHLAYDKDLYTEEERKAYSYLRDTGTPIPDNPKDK

Streptococcus = assay: GAS UMAA2166 growth inhibition – luminescence, BacTiterGlo, counter-screen for streptokinase expression inhibitor project, dose response (AID 1915); format: functional, organism-based;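 also: potency for reduction of bacterial viability or growth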
INS1 = assay: INS-1E survival protection against cytokine death – cell-based, luminescence, retest, dose response (AID 449756); format: functional; settings: Rattus norvegicus;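 also: cell death triggered by IL-1 beta plus TNF-alpha plus IFN-gamma mixture; protective hits raise ATP signal compared with cytokine alone wells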
Cytochrome P450 2C9 = Cytochrome P450 2C9 (Homo sapiens, UniProt P11712)
Cytochrome P450 2D6 = Cytochrome P450 2D6 (Homo sapiens, UniProt P10635);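 also: CYP2D6 member of a cytochrome P450 panel assay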
Cytochrome P450 3A4 = Cytochrome P450 3A4 (Homo sapiens, UniProt P08684);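 also: CYP3A4 tested as one member of a cytochrome P450 panel screen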
[4] = Trypanosoma cruzi growth suppression in host cells – NIH3T3 host cells, beta-gal luminescence, confirmation (AID 2044); format: functional, cell-based;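 also: intracellular parasites grown in NIH/3T3 mouse fibroblasts as host cells; luminescent beta-galactosidase reporter signal from transgenic T. cruzi replicating inside host cells; inhibitors lower the luminescence signal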
[5] = NIH3T3 cell viability loss – ATP luminescence, mouse fibroblasts, counter-screen, dose response (AID 2010); format: functional, cell-based;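 also: cells exposed to compound for about 90 hours before reading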

Sequence of Cytochrome P450 2C19 (P33261 whole entry): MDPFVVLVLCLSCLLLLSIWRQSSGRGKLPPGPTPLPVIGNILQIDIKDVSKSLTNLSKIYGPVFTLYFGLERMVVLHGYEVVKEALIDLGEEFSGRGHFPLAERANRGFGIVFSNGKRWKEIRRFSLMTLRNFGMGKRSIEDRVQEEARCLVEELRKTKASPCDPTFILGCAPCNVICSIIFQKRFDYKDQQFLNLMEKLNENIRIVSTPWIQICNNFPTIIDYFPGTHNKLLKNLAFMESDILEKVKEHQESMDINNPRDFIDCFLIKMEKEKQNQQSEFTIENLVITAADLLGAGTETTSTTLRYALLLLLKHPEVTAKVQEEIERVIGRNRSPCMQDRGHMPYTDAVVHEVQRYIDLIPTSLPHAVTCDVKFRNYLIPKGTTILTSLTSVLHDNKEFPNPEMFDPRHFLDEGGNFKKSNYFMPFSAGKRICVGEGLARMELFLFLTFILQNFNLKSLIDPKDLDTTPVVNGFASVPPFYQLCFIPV
Sequence of Cytochrome P450 2C9 (P11712 whole entry): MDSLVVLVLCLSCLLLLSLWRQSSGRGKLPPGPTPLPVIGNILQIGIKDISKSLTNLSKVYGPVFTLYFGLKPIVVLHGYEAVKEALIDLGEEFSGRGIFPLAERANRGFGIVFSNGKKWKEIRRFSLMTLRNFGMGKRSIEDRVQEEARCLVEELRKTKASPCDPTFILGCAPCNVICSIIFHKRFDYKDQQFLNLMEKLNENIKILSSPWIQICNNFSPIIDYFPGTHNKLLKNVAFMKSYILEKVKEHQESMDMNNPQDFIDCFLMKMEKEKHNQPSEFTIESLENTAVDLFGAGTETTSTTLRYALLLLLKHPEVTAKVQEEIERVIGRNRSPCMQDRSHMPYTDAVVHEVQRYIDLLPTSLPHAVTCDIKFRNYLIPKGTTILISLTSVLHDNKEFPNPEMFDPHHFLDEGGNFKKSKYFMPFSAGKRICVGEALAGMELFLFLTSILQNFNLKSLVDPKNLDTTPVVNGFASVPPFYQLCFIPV
Sequence of Cytochrome P450 2D6 (P10635 whole entry): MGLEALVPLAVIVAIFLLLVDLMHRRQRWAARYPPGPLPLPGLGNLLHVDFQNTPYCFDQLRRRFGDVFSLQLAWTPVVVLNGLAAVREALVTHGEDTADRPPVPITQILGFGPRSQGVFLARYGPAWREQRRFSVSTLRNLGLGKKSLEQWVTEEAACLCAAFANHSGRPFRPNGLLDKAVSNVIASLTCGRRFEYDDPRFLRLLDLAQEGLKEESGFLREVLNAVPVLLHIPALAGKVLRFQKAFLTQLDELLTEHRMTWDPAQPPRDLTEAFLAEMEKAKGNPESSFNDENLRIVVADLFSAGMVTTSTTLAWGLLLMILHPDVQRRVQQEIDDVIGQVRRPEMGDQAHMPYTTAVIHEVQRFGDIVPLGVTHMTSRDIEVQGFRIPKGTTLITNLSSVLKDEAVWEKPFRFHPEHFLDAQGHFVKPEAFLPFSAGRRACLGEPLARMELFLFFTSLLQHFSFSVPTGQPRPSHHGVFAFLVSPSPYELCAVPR
Sequence of Cytochrome P450 3A4 (P08684 whole entry): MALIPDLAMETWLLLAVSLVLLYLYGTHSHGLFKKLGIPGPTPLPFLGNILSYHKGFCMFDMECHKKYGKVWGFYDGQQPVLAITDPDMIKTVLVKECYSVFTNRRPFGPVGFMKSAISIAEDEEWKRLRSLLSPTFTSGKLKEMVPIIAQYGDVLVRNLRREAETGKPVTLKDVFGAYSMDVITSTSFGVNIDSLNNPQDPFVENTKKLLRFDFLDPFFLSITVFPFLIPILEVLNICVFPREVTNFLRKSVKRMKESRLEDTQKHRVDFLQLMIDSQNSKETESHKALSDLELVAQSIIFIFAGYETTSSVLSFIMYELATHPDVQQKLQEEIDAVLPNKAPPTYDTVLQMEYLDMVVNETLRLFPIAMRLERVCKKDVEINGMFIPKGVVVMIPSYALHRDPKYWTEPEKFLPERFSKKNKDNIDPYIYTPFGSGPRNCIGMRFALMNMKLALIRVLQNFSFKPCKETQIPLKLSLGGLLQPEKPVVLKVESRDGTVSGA

Compound: CC(C)(C)c1ccc(OCC(=O)NNC(=O)Cc2cccs2)cc1
- AC50 (Cytochrome P450 2C19; read-out: AC50): 20 µM (inconclusive)
- AC50 (Cytochrome P450 1A2): 28.2 µM (inconclusive)

Compound: COc1ccc(C2N=C(Nc3ccc(C)cc3)Nc3nc(C)cc(=O)n32)cc1 (centres undefined)
- EC50 [1]: > 160 µM (inactive)
- EC50 [2]: > 38 µM (not active)

Compound: CC1(C)Cc2c(cnn2-c2ccccc2)C(NC(=O)CCCN2CCCC2=O)C1 (centres undefined)
- EC50 [3]: > 150 µM (not active)
- EC50 (Streptokinase A): > 150 µM (not active)
- EC50 (Streptococcus): > 150 µM (not active)

Compound: O=C(Nc1cccc(F)c1)N1CCCCCC1
- EC50 [3]: > 150 µM (not active)
- EC50 (Streptokinase A): > 150 µM (not active)
- EC50 (Streptococcus): > 150 µM (not active)

Compound: CCN(CC)S(=O)(=O)c1cccc(NC(=O)c2cc(-c3cccs3)nn2-c2ccccc2)c1
- AC50 (INS1): 10.3 µM (active)

Compound: COc1ccc(OCCNS(=O)(=O)c2ccc3oc4ccccc4c3c2)cc1
- AC50 (Cytochrome P450 2C9): 2.51 µM (inconclusive)

Compound: Cc1ccc(NS(=O)(=O)c2ccc(C3CCCCC3)cc2)cc1
- EC50 [3]: 4.32 µM (active)
- EC50 (Streptokinase A): 4.17 µM (active)
- EC50 (Streptococcus): 7.04 µM (active)

Compound: COc1cccc(-c2ccc3ncnc(Nc4ccccc4)c3c2)c1
- AC50 (Cytochrome P450 2C9): 0.631 µM (inconclusive)

Compound: O=C(Oc1c(Cl)cc(Cl)c2cccnc12)N1CCOCC1
- EC50 [1]: > 150 µM (inactive)
- EC50 [2]: > 38 µM (not active)

Compound: Cc1c(C(=O)NCCC2=CCCCC2)cccc1[N+](=O)[O-]
- AC50 (Cytochrome P450 2D6): 15.8 µM (inconclusive)
- AC50 (Cytochrome P450 1A2): 15.8 µM (inconclusive)
- AC50 (Cytochrome P450 3A4): 14.1 µM (inconclusive)

Compound: CC(=O)NCCNc1nc(-c2cccc(NS(C)(=O)=O)c2)nc2ccccc12
- AC50 (Cytochrome P450 2C19; read-out: AC50): 39.8 µM (inconclusive)
- AC50 (Cytochrome P450 2D6): 10 µM (inconclusive)

Compound: COc1ccc(-c2nc(-c3ccncc3)no2)cc1OC
- EC50 [1]: > 160 µM (inactive)
- EC50 [2]: 5.21 µM (active)

Compound: COCCn1c(=O)c(-c2ccc(Cl)cc2)nc2cnc(OC)nc21
- AC50 (Cytochrome P450 2D6): 25.1 µM (inconclusive)
- AC50 (Cytochrome P450 2C9): 39.8 µM (inconclusive)

Compound: Cc1ccc(NC(=O)c2cccc(OCc3c(C)noc3C)c2)cc1S(=O)(=O)Nc1ccccc1Cl
- EC50 (Streptokinase A): > 150 µM (not active)
- EC50 (Streptococcus): 57.1 µM (active)

Compound: CN(Cc1ccco1)c1ncnc2ccc(-c3cccc(NS(C)(=O)=O)c3)cc12
- AC50 (Cytochrome P450 2C9): 0.794 µM (inconclusive)

Compound: O=C(O)CSCC(=O)N(Cc1ccccc1)c1nc(-c2ccccc2)c(-c2ccccc2)s1
- EC50 [3]: 0.996 µM (active)
- EC50 (Streptokinase A): 2.81 µM (active)
- EC50 (Streptococcus): 8.03 µM (active)

Compound: Cc1cccc(CSc2nc(N)c(C#N)c(-c3cccs3)c2C#N)c1
- EC50 [3]: 5.04 µM (active)
- EC50 (Streptokinase A): 4.93 µM (active)
- EC50 [4]: 2.31 µM (active)
- EC50 [5]: > 60 µM (inconclusive)
- EC50 (Streptococcus): > 150 µM (not active)

Compound: CCOC(=O)c1sc(NC(C)=O)nc1-c1ccccc1
- AC50 (Cytochrome P450 2C19; read-out: AC50): 10 µM (inconclusive)

Compound: CC(C)c1ccc(COc2ccc(C(=O)N3CCOCC3)cc2)cc1
- AC50 (INS1): 9.42 µM (active)

Compound: FC(F)(F)Oc1ccc(N=C(S)Nc2ccc(OC(F)(F)F)cc2)cc1
- EC50 [3]: 15.8 µM (active)
- EC50 (Streptokinase A): > 150 µM (not active)
- EC50 (Streptococcus): 22 µM (active)

Compound: CO[C@@H](C)[C@](O)(C(=O)OCC1=CCN2CC[C@@H](O)[C@H]12)C(C)C
- AC50 (Cytochrome P450 2C19): inconclusive
- AC50 (Cytochrome P450 2D6): 3.98 µM (inconclusive)

Compound: COc1ccc2[nH]cc(CCNc3ncnc4ccc(-c5c(C)noc5C)cc34)c2c1
- AC50 (Cytochrome P450 2C9): 0.501 µM (inconclusive)

Compound: Cn1ncc2c(Nc3ccc(Cl)c(Cl)c3)ncnc21
- EC50 [3]: 7.9 µM (active)
- EC50 (Streptokinase A): > 150 µM (not active)
- EC50 (Streptococcus): 16 µM (active)

Compound: CCN(CC)c1nc(N)c2c(N)nc3c(c2c1C#N)CC(c1ccccc1)O3 (centres undefined)
- EC50 [1]: > 160 µM (inactive)
- EC50 [2]: > 38 µM (not active)

Compound: Cc1ccc(-c2csc(NNC(=O)c3ccccc3)n2)cc1
- EC50 [3]: 4.37 µM (active)
- EC50 (Streptokinase A): > 150 µM (not active)
- EC50 (Streptococcus): > 150 µM (not active)
